{
  "source": "ChEMBL document CHEMBL3507680",
  "about": "“University of Dundee, Gates Library screen for HepG2 cell viability”",
  "data": [
    {"assay": "Human HepG2 cell viability assay in 384 well format", "assay_type": "toxicity, cell-based", "parameters": "dose 125 nL, time 70.5 hour; concentration not given beside the values", "conditions": "HepG2 cells, read-out: Inhibition", "units": {"cytotoxicity at 70.5 h": "%"}, "values": [
      {"molecule": "Cc1cccc(N2CCC3(CCCN(C(=O)Cc4cccnc4)C3)C2)n1", "note": "(stereo unspecified)", "cytotoxicity at 70.5 h": 21.3},
      {"molecule": "O=C(c1scc2c1OCCO2)N1CCOC(CCc2ccccc2)C1", "note": "(stereo unspecified)", "cytotoxicity at 70.5 h": 1.27},
      {"molecule": "N#Cc1ccsc1NC(=O)CN1CCn2c(nnc2C2CC2)C1", "cytotoxicity at 70.5 h": -6.74},
      {"molecule": "CCc1ccc(CN2CCC(CNC(=O)c3ccc(C)nc3)C2)nc1", "note": "(stereo unspecified)", "cytotoxicity at 70.5 h": 16},
      {"molecule": "CCN(CC)Cc1ccccc1NC(=O)N(C)Cc1ccccc1O", "cytotoxicity at 70.5 h": -6.5},
      {"molecule": "CCCc1noc(CS(=O)(=O)c2cccc(OC)c2)n1", "cytotoxicity at 70.5 h": -5.69},
      {"molecule": "CC(C)N1CCC(NCc2cccnc2N(C)C)CC1", "cytotoxicity at 70.5 h": 2.11},
      {"molecule": "Cc1nc(C2CCCN2C(=O)Cc2ccc(F)cc2)nc(O)c1C", "note": "(stereo unspecified)", "cytotoxicity at 70.5 h": 2.83},
      {"molecule": "COCCN1CCC2(CC1)CN(C(=O)Cc1cccnc1)CCO2", "cytotoxicity at 70.5 h": -5.95},
      {"molecule": "Cc1nc(CN2CCC3(CCN(c4ncc(F)cn4)C3)C2=O)cs1", "note": "(stereo unspecified)", "cytotoxicity at 70.5 h": 4.85},
      {"molecule": "COCCN(C(=O)c1ccc(OC)cc1)c1ccc(C#N)cc1", "cytotoxicity at 70.5 h": 10.5},
      {"molecule": "CN(CCCOc1ccc(F)cc1)Cc1nc2c(cnn2C)c(=O)[nH]1", "cytotoxicity at 70.5 h": 4.27},
      {"molecule": "O=C(c1cccs1)N1CCCn2c(nc(CN3CCCC3)cc2=O)C1", "cytotoxicity at 70.5 h": -0.229},
      {"molecule": "Cc1cc(C(=O)NC(C)Cc2cccc(Cl)c2)n(C)n1", "note": "(stereo unspecified)", "cytotoxicity at 70.5 h": -2.61},
      {"molecule": "Cc1cnn(CC(=O)N2CCC3(CCC(=O)N(CCCO)C3)CC2)c1", "cytotoxicity at 70.5 h": 0.675},
      {"molecule": "CCn1cc(-c2n[nH]c(=O)n2-c2ccc3c(c2)OCO3)c(C)n1", "cytotoxicity at 70.5 h": -4.59},
      {"molecule": "Cc1noc(CCCC(=O)N2CCCCC2c2nccs2)n1", "note": "(stereo unspecified)", "cytotoxicity at 70.5 h": 32},
      {"molecule": "CC(=O)N(Cc1noc(C)n1)C1CCN(Cc2ccncc2Cl)C1", "note": "(stereo unspecified)", "cytotoxicity at 70.5 h": -4.45},
      {"molecule": "O=C(NC1CC1)C1CNCCN1C(=O)CCc1ccc2c(c1)OCO2", "note": "(stereo unspecified)", "cytotoxicity at 70.5 h": -3.72},
      {"molecule": "O=C(c1cnc(-c2cnccn2)s1)N1CCCC1Cn1cccn1", "note": "(stereo unspecified)", "cytotoxicity at 70.5 h": -3.28},
      {"molecule": "CCc1cc(C(F)(F)F)c2c(C3CCN(C(=O)COC)CC3)noc2n1", "cytotoxicity at 70.5 h": -6.22},
      {"molecule": "O=C(CCc1nc2cccnc2[nH]1)NCc1ccncc1", "cytotoxicity at 70.5 h": -19.4},
      {"molecule": "C[C@@H]1CN(C2CCN(c3ccccc3F)CC2)CC[C@]1(C)O", "cytotoxicity at 70.5 h": -5.09},
      {"molecule": "c1nc2c(c(NC3CCC3)n1)CCNCC2", "cytotoxicity at 70.5 h": -2.44},
      {"molecule": "CN(C)S(=O)(=O)c1ccc(CNc2ccc(Cl)cn2)cc1", "cytotoxicity at 70.5 h": 0.742},
      {"molecule": "O=C([C@H]1C[C@H]2OCC[C@H]2N(C(=O)c2ccccn2)C1)N1CCCCO1", "cytotoxicity at 70.5 h": -6.44},
      {"molecule": "CNC(=O)[C@H]1C[C@@H]2CN(C(=O)c3ccc(C)nc3)C[C@@H]2N1C(C)C", "cytotoxicity at 70.5 h": -9.38},
      {"molecule": "Cc1nc(N)cc(C2CN(C(=O)c3ccn(C)n3)CCO2)n1", "note": "(stereo unspecified)", "cytotoxicity at 70.5 h": -11.7},
      {"molecule": "NC(=O)N1CCCC(c2nc(-c3cccnn3)no2)C1", "note": "(stereo unspecified)", "cytotoxicity at 70.5 h": -5.18},
      {"molecule": "c1cncc(OCC2CN(Cc3ccsc3)Cc3nccn3C2)c1", "note": "(stereo unspecified)", "cytotoxicity at 70.5 h": 6.26},
      {"molecule": "N#Cc1ccc(CN2CCCCC2Cn2cncn2)cc1", "note": "(stereo unspecified)", "cytotoxicity at 70.5 h": 11.7},
      {"molecule": "CCc1nc(CNCC2CCCN2c2cccnn2)cs1", "note": "(stereo unspecified)", "cytotoxicity at 70.5 h": -6.05},
      {"molecule": "Cc1c(Br)cccc1C(=O)NCc1cnn(C)c1", "cytotoxicity at 70.5 h": 2.04},
      {"molecule": "O=C1CO[C@@H]2CN(C3CCOCC3)C[C@H]2N1Cc1cccc(F)c1", "cytotoxicity at 70.5 h": -6.55},
      {"molecule": "Cc1ccc(CC(NC(=O)Cn2cnnn2)c2ccccn2)cc1", "note": "(stereo unspecified)", "cytotoxicity at 70.5 h": -1.31},
      {"molecule": "O=C(c1cc(-n2cccn2)ccc1Cl)N1CCC(N2CCCC2=O)CC1", "cytotoxicity at 70.5 h": -9.31},
      {"molecule": "COc1cc(C(=O)NC(C)C)nc2c(C)cc(F)cc12", "cytotoxicity at 70.5 h": 23.4},
      {"molecule": "CC(C)c1nccn1C(C)C(=O)NC1CCN(S(C)(=O)=O)CC1", "note": "(stereo unspecified)", "cytotoxicity at 70.5 h": 3.51},
      {"molecule": "c1ccc(OCc2noc3c2CN(c2ncccn2)CC3)nc1", "cytotoxicity at 70.5 h": -6.14},
      {"molecule": "O=S(=O)(NCCCn1cncn1)c1ccc2c(c1)CCO2", "cytotoxicity at 70.5 h": -5.26},
      {"molecule": "N#CCCN(Cc1ccccn1)C(=O)c1cccc(CN2CCCC2)c1", "cytotoxicity at 70.5 h": -1.86},
      {"molecule": "Cc1cc(C)n(C2CN(Cc3ccccn3)C2)n1", "cytotoxicity at 70.5 h": -9.82},
      {"molecule": "COCC(=O)N(Cc1cccc(C)c1)Cc1ccccc1OC", "cytotoxicity at 70.5 h": -4.3},
      {"molecule": "NC(=O)c1ccc(S(=O)(=O)NC(=O)COc2ccc3c(c2)CCC3)cc1", "cytotoxicity at 70.5 h": -6.16},
      {"molecule": "CC(C)C1CN(C(=O)c2ccncc2)CCS1", "note": "(stereo unspecified)", "cytotoxicity at 70.5 h": -1.14},
      {"molecule": "COc1ccc(CN(C(=O)C(C)C)c2cnn(C)c2)c(OC)c1", "cytotoxicity at 70.5 h": -1.23},
      {"molecule": "CCC(CC)NC(=O)CN1CCN(C(=O)N(C)C)CC1", "cytotoxicity at 70.5 h": -0.0942},
      {"molecule": "Cc1cccc(N2CC[C@@H]3CN(Cc4csc(C)n4)CCO[C@@H]3C2)n1", "cytotoxicity at 70.5 h": 2.82},
      {"molecule": "CC(CNC(=O)c1cc(C2CC2)nc2c1cnn2C)Cn1cccn1", "note": "(stereo unspecified)", "cytotoxicity at 70.5 h": -6.63},
      {"molecule": "Fc1cnccc1CN1CCC2(CCNCC2)C1", "cytotoxicity at 70.5 h": -10.4},
      {"molecule": "COc1ccc(CC(=O)NC(C)c2nc3cccnc3n2C(C)C)cc1", "note": "(stereo unspecified)", "cytotoxicity at 70.5 h": 2.45},
      {"molecule": "Cc1nc(CNC(=O)Nc2ccc(N(C)C)nc2)sc1C", "cytotoxicity at 70.5 h": -2.95},
      {"molecule": "CN(Cc1ccccc1)CC(C)(C)NC(=O)c1ccon1", "cytotoxicity at 70.5 h": -4.18},
      {"molecule": "Cc1cnc(N2CCN(C)c3ncccc3C2)nc1", "cytotoxicity at 70.5 h": 4.51},
      {"molecule": "CC(C)Cc1nc(CN2CCCC2Cn2cncn2)no1", "note": "(stereo unspecified)", "cytotoxicity at 70.5 h": -7.43},
      {"molecule": "Cc1cccc(C(=O)N2CCCCC2c2ccc(CN(C)C)cc2)c1", "note": "(stereo unspecified)", "cytotoxicity at 70.5 h": -8.71}
    ]}
  ]
}
